Test results reported in patent US20200239530A1, “COMPOUNDS AND METHODS OF MODULATING PROTEIN DEGRADATION” (Vividion Therapeutics, Inc., priority 2017, published 2020).
Where two headings read alike, the source gives them in different places.

Experiments:
Assay in all cases: Cysteine liganding, probe competition
Assay type in all cases: binding
UniProt O14508 = target: T1, UniProt O14508 (Homo sapiens, UniProt O14508); conditions: for inhibition at 100 µM: read-out: percent_inhibition
T1 construct: 200 μL of lysate containing 5 mg/ml proteome was treated with 2 μL of 100× compound stock; endogenous in cells
T1 sequence (O14508 1-198): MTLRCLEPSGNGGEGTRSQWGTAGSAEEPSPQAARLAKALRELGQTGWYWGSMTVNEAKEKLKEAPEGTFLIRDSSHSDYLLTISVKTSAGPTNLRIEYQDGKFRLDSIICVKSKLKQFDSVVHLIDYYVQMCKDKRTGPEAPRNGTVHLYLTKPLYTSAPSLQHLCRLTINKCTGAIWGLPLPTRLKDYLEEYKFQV
Source text: (§1) The following 96-well sample prep protocol was used for sample preparation.

UniProt Q6AZZ1 = target: T2, UniProt Q6AZZ1 (Homo sapiens, UniProt Q6AZZ1)
T2 construct: 200 μL of lysate containing 5 mg/ml proteome was treated with 2 μL of 100× compound stock; endogenous in cells
T2 sequence (Q6AZZ1 1-485): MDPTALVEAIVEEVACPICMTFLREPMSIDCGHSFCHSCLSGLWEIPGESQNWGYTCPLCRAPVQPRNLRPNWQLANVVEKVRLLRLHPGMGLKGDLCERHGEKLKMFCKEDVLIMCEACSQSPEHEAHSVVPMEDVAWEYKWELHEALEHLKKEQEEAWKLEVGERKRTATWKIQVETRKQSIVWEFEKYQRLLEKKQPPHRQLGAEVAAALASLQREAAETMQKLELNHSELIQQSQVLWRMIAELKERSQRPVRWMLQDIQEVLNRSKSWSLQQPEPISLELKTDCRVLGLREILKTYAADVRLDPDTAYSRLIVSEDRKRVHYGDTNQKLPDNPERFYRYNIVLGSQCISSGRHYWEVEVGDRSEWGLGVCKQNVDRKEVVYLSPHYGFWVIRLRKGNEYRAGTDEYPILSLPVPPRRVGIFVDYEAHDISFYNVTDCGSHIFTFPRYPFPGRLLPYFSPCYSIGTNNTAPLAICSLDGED
Source text: as §1

UniProt Q96G25 = target: T3, UniProt Q96G25 (Homo sapiens, UniProt Q96G25)
T3 construct: Cells were resuspended in cold PBS on ice and sonicated with a probe sonicator to achieve lysis; endogenous in cells
T3 sequence (Q96G25 1-268): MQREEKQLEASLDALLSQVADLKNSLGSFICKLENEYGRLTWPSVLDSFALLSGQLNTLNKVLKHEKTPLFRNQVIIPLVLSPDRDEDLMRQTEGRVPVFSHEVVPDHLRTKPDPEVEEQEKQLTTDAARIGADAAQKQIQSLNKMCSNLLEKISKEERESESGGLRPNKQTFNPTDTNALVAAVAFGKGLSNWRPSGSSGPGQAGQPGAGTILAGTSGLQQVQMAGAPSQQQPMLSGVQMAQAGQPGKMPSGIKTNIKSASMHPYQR
Source text: as §1

UniProt Q8TE49 = target: T4, UniProt Q8TE49 (Homo sapiens, UniProt Q8TE49)
T4 construct: Cells were resuspended in cold PBS on ice and sonicated with a probe sonicator to achieve lysis; endogenous in cells
T4 sequence (Q8TE49 1-926): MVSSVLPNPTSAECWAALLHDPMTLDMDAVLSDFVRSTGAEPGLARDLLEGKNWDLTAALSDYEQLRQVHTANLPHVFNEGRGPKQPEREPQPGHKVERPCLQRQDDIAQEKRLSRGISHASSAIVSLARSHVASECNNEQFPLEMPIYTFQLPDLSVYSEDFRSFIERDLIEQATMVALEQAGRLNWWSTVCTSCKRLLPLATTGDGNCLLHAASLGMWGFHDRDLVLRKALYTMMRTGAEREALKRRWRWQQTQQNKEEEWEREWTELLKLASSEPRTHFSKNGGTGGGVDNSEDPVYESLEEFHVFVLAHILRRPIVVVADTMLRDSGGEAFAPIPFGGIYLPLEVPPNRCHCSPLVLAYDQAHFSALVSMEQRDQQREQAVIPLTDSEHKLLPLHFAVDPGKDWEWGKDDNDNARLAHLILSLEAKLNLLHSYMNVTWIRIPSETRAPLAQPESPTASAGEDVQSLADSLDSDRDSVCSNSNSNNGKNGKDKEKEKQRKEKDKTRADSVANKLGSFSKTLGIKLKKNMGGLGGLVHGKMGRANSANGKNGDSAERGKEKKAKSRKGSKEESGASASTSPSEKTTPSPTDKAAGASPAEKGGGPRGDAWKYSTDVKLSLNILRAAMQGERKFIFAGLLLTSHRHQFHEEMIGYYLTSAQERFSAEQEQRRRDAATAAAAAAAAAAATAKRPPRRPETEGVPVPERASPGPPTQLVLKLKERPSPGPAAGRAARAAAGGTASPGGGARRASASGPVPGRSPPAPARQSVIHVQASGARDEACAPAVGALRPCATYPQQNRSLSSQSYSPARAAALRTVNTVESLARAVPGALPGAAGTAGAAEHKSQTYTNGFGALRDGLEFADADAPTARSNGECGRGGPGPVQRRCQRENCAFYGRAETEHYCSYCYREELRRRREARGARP
Source text: as §1

UniProt Q6PJ21 = target: T5, UniProt Q6PJ21 (Homo sapiens, UniProt Q6PJ21); conditions: for inhibition at 100 µM / inhibition at 500 µM: read-out: percent_inhibition
T5 construct: 200 μL of lysate containing 5 mg/ml proteome was treated with 2 μL of 100× compound stock; endogenous in cells
T5 sequence (Q6PJ21 1-355): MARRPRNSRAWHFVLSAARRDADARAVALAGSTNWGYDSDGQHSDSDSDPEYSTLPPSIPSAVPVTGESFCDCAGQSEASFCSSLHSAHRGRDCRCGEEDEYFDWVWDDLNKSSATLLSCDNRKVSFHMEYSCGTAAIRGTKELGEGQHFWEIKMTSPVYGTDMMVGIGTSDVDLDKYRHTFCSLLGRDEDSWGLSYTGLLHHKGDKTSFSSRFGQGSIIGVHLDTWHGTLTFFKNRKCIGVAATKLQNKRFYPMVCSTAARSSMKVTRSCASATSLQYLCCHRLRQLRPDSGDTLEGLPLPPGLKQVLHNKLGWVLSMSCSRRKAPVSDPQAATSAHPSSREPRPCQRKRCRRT
Source text: as §1

UniProt Q6ZTA4 = target: T6, UniProt Q6ZTA4 (Homo sapiens, UniProt Q6ZTA4)
T6 construct: 200 μL of lysate containing 5 mg/ml proteome was treated with 2 μL of 100× compound stock; endogenous in cells
T6 sequence (Q6ZTA4 whole entry, change not shown): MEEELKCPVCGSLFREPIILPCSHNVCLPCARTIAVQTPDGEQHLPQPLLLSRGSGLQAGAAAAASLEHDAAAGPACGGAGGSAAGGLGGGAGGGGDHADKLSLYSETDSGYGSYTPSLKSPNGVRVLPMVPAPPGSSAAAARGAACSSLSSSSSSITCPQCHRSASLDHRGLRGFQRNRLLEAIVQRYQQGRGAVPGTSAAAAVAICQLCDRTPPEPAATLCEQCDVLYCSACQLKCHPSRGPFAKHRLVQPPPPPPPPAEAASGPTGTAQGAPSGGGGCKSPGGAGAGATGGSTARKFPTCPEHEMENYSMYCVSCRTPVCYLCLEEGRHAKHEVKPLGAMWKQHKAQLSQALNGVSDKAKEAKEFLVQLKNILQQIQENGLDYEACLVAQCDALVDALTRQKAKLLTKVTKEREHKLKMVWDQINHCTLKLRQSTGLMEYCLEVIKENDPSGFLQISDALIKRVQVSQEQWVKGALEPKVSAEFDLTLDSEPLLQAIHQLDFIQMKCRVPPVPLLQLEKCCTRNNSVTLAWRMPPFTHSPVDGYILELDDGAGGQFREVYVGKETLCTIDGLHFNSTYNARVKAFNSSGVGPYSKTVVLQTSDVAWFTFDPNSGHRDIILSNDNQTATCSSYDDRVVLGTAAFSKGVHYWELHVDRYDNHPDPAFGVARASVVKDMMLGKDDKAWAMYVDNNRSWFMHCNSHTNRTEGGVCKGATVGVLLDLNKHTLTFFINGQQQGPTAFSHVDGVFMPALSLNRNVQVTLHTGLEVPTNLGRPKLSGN
Source text: as §1

[1] = read-out: KB05_500 uM_percent_inhibition
[2] = 100 uM, read-out: percent inhibition
[3] = read-out: KB02_500 uM_percent_inhibition

Row | inhibition at 500 µM (UniProt Q6AZZ1; [1]) [%] | percent inhibition (UniProt Q96G25; 500 uM) [%] | inhibition at 500 µM (UniProt Q96G25; 500 uM, read-out: percent inhibition) [%] | inhibition at 500 µM (UniProt Q8TE49; 500 uM, read-out: KB05_500 uM_percent_inhibition) [%] | inhibition at 500 µM (UniProt Q6ZTA4; [1]) [%] | SMILES | inhibition at 100 µM (UniProt O14508) [%] | inhibition at 100 µM (UniProt Q96G25; [2]) [%] | inhibition at 100 µM (UniProt Q6PJ21; 100 uM) [%] | inhibition at 500 µM (UniProt Q6PJ21; 500 uM) [%] | percent_inhibition (UniProt O14508; 100 uM) [%] | KB03_500 uM_percent_inhibition (UniProt Q6AZZ1; 500 uM) [%] | percent inhibition (UniProt Q96G25; 100 uM) [%] | KB03_100 uM_percent_inhibition (UniProt Q8TE49; 100 uM) [%] | KB03_500 uM_percent_inhibition (UniProt Q8TE49; 500 uM) [%] | percent_inhibition (UniProt Q6PJ21; 100 uM) [%] | percent_inhibition (UniProt Q6PJ21; 500 uM) [%] | KB03_500 uM_percent_inhibition (UniProt Q6ZTA4; 500 uM) [%] | inhibition at 500 µM (UniProt Q6AZZ1; [3]) [%] | inhibition at 500 µM (UniProt Q8TE49; 500 uM, read-out: KB02_500 uM_percent_inhibition) [%] | inhibition at 500 µM (UniProt Q6ZTA4; [3]) [%]
1 | 36 | 40 | 31 | 23 | 37 | C=CC(=O)N(c1ccccc1)c1ccc(Br)cc1 [KB05] | 48 | 10 | 4 | 30 | – | – | – | – | – | – | – | – | – | – | –
2 | – | – | – | – | – | O=C(CCl)Nc1cc(C(F)(F)F)cc(C(F)(F)F)c1 [KBO3] | – | – | – | – | 30 | 18 | 8 | 52 | 56 | 25 | 52 | 6 | – | – | –
3 | – | – | – | – | – | COc1ccc2c(c1)CCCN2C(=O)CCl [KB02] | 14 | 29 | 5 | 8 | – | – | 31 | – | – | – | – | – | 44 | 28 | 44
